The source of these data is patent US9271978B2 (Zenith Epigenetics Corp., priority 2012, dated 2016).

Common to all, as to parameters: key: Active: Compounds with an IC50 value less than 30 μM were deemed to be active.; Not Active: Compounds with an IC50 value less than 30 μM were deemed to be active
One assay has as its system c-myc. Description: Inhibition of c-myc expression in MV4-11 cells (mRNA, real-time PCR). Type of assay: cell-based. The settings on record: Human AML MV4-11 cells, 3 h incubation. How it is done:
MV4-11 cells (2.5×10^4 cells) were plated in 96 well U-bottom plates with test compound or DMSO (0.1%), and incubated for 3 h at 37° C. Cells were then harvested by centrifugation, lysed, and mRNA was isolated using the mRNA catcher plus kit (Invitrogen). Reverse transcription of the mRNA and duplex amplification of the c-myc and cyclophilin cDNAs was performed using the RNA Ultrasense kit (Invitrogen) and a ViiA7 real-time PCR machine (Applied Biosystems). IC50 values were determined from a dose response curve.

Assay [1] addresses T1, Brd4 bromodomain 1 (BRD4(1)) (Homo sapiens, UniProt O60885).
T1 construct: Illustrative results with the first bromodomain of Brd4; made in house; host or cells: E. coli BL21 (DE3)
The experiment in a line: Inhibition of tetra-acetylated histone H4 binding to Brd4 bromodomain 1 (TR-FRET). As to conditions: tetra-acetylated histone H4 peptide, active = IC50 <30 μM. Summed up: (§1)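 N-terminally His-tagged bromodomains (200 nM), expressed in E. coli, were incubated with biotinylated tetra-acetylated histone H4 peptide (25-50 nM), Eu-cryptate streptavidin and XL665 anti-His antibody in HEPES pH 7.4 buffer with KF, 0.2% DMSO, 2 h at room temperature. Inhibition read as decreased 665/620 nm TR-FRET; IC50 from dose-response curves.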

The next assay relates to hIL-6 mRNA. The experiment in a line: Inhibition of hIL-6 mRNA transcription in U937 cells. The settings on record: LPS stimulation, active = IC50 <30 μM. In kind it is cell-based, human. The procedure, abridged: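 U937 cells differentiated 3 days with 60 ng/mL PMA, pretreated 1 h with compound, then stimulated with 1 ug/mL E. coli LPS for 3 h at 37° C. hIL-6 mRNA quantified by one-step qRT-PCR, Ct normalized to internal control, expressed as fold induction relative to control.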

Assay [2] relates to human AML MV-4-11 (CRL-9591) cells. The experiment in a line: Inhibition of cell proliferation in MV4-11 cells. The settings on record: human AML MV-4-11 cells, 72 h; active = IC50 <30 μM. In kind it is cell-based. Summed up:
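Exponentially growing MV-4-11 cells (5×10^4/well) were treated immediately with two-fold dilutions of compound from 30 μM to 0.2 μM, in triplicate, for 72 h at 37° C, 5% CO2. Viability was measured by MTS absorbance at 490 nm after 3–4 h. Proliferation relative to DMSO after blank correction gave IC50.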

Assay [3] concerns the target T2, second bromodomain of Brd2 (BRD2(2)) (Homo sapiens, UniProt P25440).
T2 construct: made in house; host or cells: E. coli BL21 (DE3)
The experiment in a line: Inhibition of tetra-acetylated histone H4 binding to Brd2 bromodomain 2 (TR-FRET). As to conditions: tetra-acetylated histone H4 peptide, active = IC50 <30 μM. Summed up:
as §1

T2 sequence (P25440 344-453 limits assumed): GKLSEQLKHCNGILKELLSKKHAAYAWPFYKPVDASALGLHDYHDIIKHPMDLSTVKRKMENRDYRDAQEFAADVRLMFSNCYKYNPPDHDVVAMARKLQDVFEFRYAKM

As to `Cc1noc(C)c1-c1ccc(=O)n(Cc2cccc(C(F)(F)F)c2)c1` [Example 4, 5-(3,5-Dimethylisoxazol-4-yl)-1-(3-(trifluoromethyl)benzyl)pyridin-2(1H)-one], the “c-myc activity (IC50 <30 μM)” value in the assay with c-myc is listed as “Active”. For the same molecule, the “FRET activity (IC50 <30 μM) BRD4(1)” value in assay [1] is “Active”. Further, in the assay on hIL-6 mRNA, the “IL-6 activity (IC50 <30 μM)” value was “Active”. Besides, the “Cell Proliferation activity (IC50 <30 μM)” value (“Cell Proliferation activity” below) in assay [2] is “Active”. Moreover, the “FRET activity (IC50 <30 μM) BRD2(2)” value in assay [3] is given as “Active”.
With `COc1cc(-c2ccc(=O)n(Cc3cccc(C#N)c3)n2)cc(OC)c1OC` [Example 15, 3-((6-Oxo-3-(3,4,5-trimethoxyphenyl)pyridazin-1(6H)-yl)methyl)benzonitrile], in the assay with c-myc, the “c-myc activity (IC50 <30 μM)” value is “Not Active”. In addition, the “FRET activity (IC50 <30 μM) BRD4(1)” value in assay [1] is recorded as “Active”. Besides, the “IL-6 activity (IC50 <30 μM)” value in the assay with hIL-6 mRNA is given as “Active”. In addition, the “Cell Proliferation activity” value in assay [2] is recorded as “Not Active”. Also, in assay [3], the “FRET activity (IC50 <30 μM) BRD2(2)” value is reported as “Active”.
In the case of `Cc1noc(C)c1-c1cc(C)c(=O)n(Cc2ccccc2)n1` [Example 21, 2-Benzyl-6-(3,5-dimethylisoxazol-4-yl)-4-methylpyridazin-3(2H)-one], the “c-myc activity (IC50 <30 μM)” value in the assay on c-myc is “Active”. In addition, in assay [1], the “FRET activity (IC50 <30 μM) BRD4(1)” value is recorded as “Active”. Besides, the “IL-6 activity (IC50 <30 μM)” value in the assay on hIL-6 mRNA is “Active”. The “Cell Proliferation activity” value in assay [2] was “Not Active”. Moreover, in assay [3], the “FRET activity (IC50 <30 μM) BRD2(2)” value was “Active”.
For the molecule `Cc1noc(C)c1-c1ccc(=O)n(Cc2ccccc2C#N)n1` [Example 24, 2-((3-(3,5-Dimethylisoxazol-4-yl)-6-oxopyridazin-1(6H)-yl)methyl)benzonitrile], in the assay on c-myc, the “c-myc activity (IC50 <30 μM)” value is “Not Active”. In addition, the “FRET activity (IC50 <30 μM) BRD4(1)” value in assay [1] is on record as “Active”. Moreover, in the assay with hIL-6 mRNA, the “IL-6 activity (IC50 <30 μM)” value was “Not Active”. Moreover, the “Cell Proliferation activity” value in assay [2] was “Active”. In assay [3], the “FRET activity (IC50 <30 μM) BRD2(2)” value is listed as “Active”.
Take `Cc1noc(C)c1-c1ccc(=O)n(Cc2ccc(Cl)cc2)n1` [Example 25, 2-(4-Chlorobenzyl)-6-(3,5-dimethylisoxazol-4-yl)pyridazin-3(2H)-one]: the “c-myc activity (IC50 <30 μM)” value in the assay with c-myc is recorded as “Active”. In addition, the “FRET activity (IC50 <30 μM) BRD4(1)” value in assay [1] was “Active”. For the same molecule, in the assay with hIL-6 mRNA, the “IL-6 activity (IC50 <30 μM)” value is “Active”. Besides, the “Cell Proliferation activity” value in assay [2] is “Active”. For the same molecule, the “FRET activity (IC50 <30 μM) BRD2(2)” value in assay [3] was “Active”.
For `Cc1ccccc1Cn1nc(-c2c(C)noc2C)ccc1=O` [Example 28], in the assay with c-myc, the “c-myc activity (IC50 <30 μM)” value is given as “Active”. Also, the “FRET activity (IC50 <30 μM) BRD4(1)” value in assay [1] is listed as “Active”. In addition, in the assay with hIL-6 mRNA, the “IL-6 activity (IC50 <30 μM)” value is “Active”. Moreover, in assay [2], the “Cell Proliferation activity” value is on record as “Active”. Also, the “FRET activity (IC50 <30 μM) BRD2(2)” value in assay [3] is “Active”.
`Cc1ccc(Cn2nc(-c3c(C)noc3C)ccc2=O)cc1` [Example 29, 6-(3,5-Dimethylisoxazol-4-yl)-2-(4-methylbenzyl)pyridazin-3(2H)-one]: the “c-myc activity (IC50 <30 μM)” value in the assay with c-myc is reported as “Active”. Moreover, the “FRET activity (IC50 <30 μM) BRD4(1)” value in assay [1] was “Active”. In the assay on hIL-6 mRNA, the “IL-6 activity (IC50 <30 μM)” value is “Active”. Also, the “Cell Proliferation activity” value in assay [2] is “Active”. Besides, in assay [3], the “FRET activity (IC50 <30 μM) BRD2(2)” value was “Active”.
For the molecule `Cc1cccc(Cn2nc(-c3c(C)noc3C)ccc2=O)c1` [Example 30, 6-(3,5-Dimethylisoxazol-4-yl)-2-(3-methylbenzyl)pyridazin-3(2H)-one], the “c-myc activity (IC50 <30 μM)” value in the assay with c-myc is “Not Active”. Moreover, the “FRET activity (IC50 <30 μM) BRD4(1)” value in assay [1] was “Active”. Besides, the “IL-6 activity (IC50 <30 μM)” value with hIL-6 mRNA is on record as “Active”. Besides, the “Cell Proliferation activity” value in assay [2] is reported as “Active”. In addition, the “FRET activity (IC50 <30 μM) BRD2(2)” value in assay [3] is on record as “Active”.
Turning to `Cc1noc(C)c1-c1ccc(=O)n(C(C)c2ccccc2C(F)(F)F)n1` (centres unmarked) [Example 34, 6-(3,5-Dimethylisoxazol-4-yl)-2-(1-(2-(trifluoromethyl)phenyl)ethyl)pyridazin-3(2H)-one], the “c-myc activity (IC50 <30 μM)” value with c-myc is reported as “Active”. In addition, the “FRET activity (IC50 <30 μM) BRD4(1)” value in assay [1] is recorded as “Active”. For the same molecule, in the assay with hIL-6 mRNA, the “IL-6 activity (IC50 <30 μM)” value is “Active”. Further, in assay [2], the “Cell Proliferation activity” value is “Active”. In addition, the “FRET activity (IC50 <30 μM) BRD2(2)” value in assay [3] is recorded as “Active”.
In the case of `Cc1noc(C)c1-c1ccc(=O)n(Cc2cccc(F)c2)c1` [Example 42, 5-(3,5-Dimethylisoxazol-4-yl)-1-(3-fluorobenzyl)pyridin-2(1H)-one], the “c-myc activity (IC50 <30 μM)” value in the assay with c-myc is recorded as “Active”. For the same molecule, in assay [1], the “FRET activity (IC50 <30 μM) BRD4(1)” value is “Active”. For the same molecule, the “IL-6 activity (IC50 <30 μM)” value with hIL-6 mRNA is reported as “Active”. Also, in assay [2], the “Cell Proliferation activity” value is “Active”. Besides, the “FRET activity (IC50 <30 μM) BRD2(2)” value in assay [3] was “Active”.
As for `Cc1noc(C)c1-c1cc(F)c(=O)n(Cc2ccccc2)c1` [Example 63, 1-Benzyl-5-(3,5-dimethylisoxazol-4-yl)-3-fluoropyridin-2(1H)-one], the “c-myc activity (IC50 <30 μM)” value in the assay with c-myc is “Active”. Moreover, the “FRET activity (IC50 <30 μM) BRD4(1)” value in assay [1] was “Active”. In addition, the “IL-6 activity (IC50 <30 μM)” value in the assay on hIL-6 mRNA is on record as “Active”. Moreover, the “Cell Proliferation activity” value in assay [2] is on record as “Active”. Further, the “FRET activity (IC50 <30 μM) BRD2(2)” value in assay [3] is reported as “Active”.
Take `Cc1noc(C)c1-c1cc(Cl)c(=O)n(Cc2ccccc2)c1` [Example 64, 1-Benzyl-3-chloro-5-(3,5-dimethylisoxazol-4-yl)pyridin-2(1H)-one]: in the assay on c-myc, the “c-myc activity (IC50 <30 μM)” value is recorded as “Active”. The “FRET activity (IC50 <30 μM) BRD4(1)” value in assay [1] is reported as “Active”. In the assay with hIL-6 mRNA, the “IL-6 activity (IC50 <30 μM)” value is reported as “Active”. In addition, the “Cell Proliferation activity” value in assay [2] was “Active”. In addition, the “FRET activity (IC50 <30 μM) BRD2(2)” value in assay [3] is “Active”.
Consider `COc1ccc(Nc2ccc(=O)n(Cc3ccccc3)c2)cc1OC` [Example 65, 1-Benzyl-5-((3,4-dimethoxyphenyl)amino)pyridin-2(1H)-one], for which the “c-myc activity (IC50 <30 μM)” value with c-myc is given as “Active”. Also, in assay [1], the “FRET activity (IC50 <30 μM) BRD4(1)” value is reported as “Active”. For the same molecule, the “IL-6 activity (IC50 <30 μM)” value in the assay with hIL-6 mRNA is reported as “Active”. The “Cell Proliferation activity” value in assay [2] was “Active”. The “FRET activity (IC50 <30 μM) BRD2(2)” value in assay [3] is listed as “Active”.
In the case of `Cc1noc(C)c1-c1cc(-c2ccc(F)cc2)c(=O)n(Cc2ccccc2)c1` [Example 70, 1-Benzyl-5-(3,5-dimethylisoxazol-4-yl)-3-(4-fluorophenyl)pyridin-2(1H)-one], in the assay with c-myc, the “c-myc activity (IC50 <30 μM)” value was “Active”. Further, the “FRET activity (IC50 <30 μM) BRD4(1)” value in assay [1] is “Active”. In addition, the “IL-6 activity (IC50 <30 μM)” value in the assay with hIL-6 mRNA was “Active”. Besides, in assay [2], the “Cell Proliferation activity” value was “Active”. Further, the “FRET activity (IC50 <30 μM) BRD2(2)” value in assay [3] is recorded as “Active”.
In the case of `COc1cccc(Cn2cc(-c3c(C)noc3C)ccc2=O)c1` [Example 78, 5-(3,5-Dimethylisoxazol-4-yl)-1-(3-methoxybenzyl)pyridin-2(1H)-one], the “c-myc activity (IC50 <30 μM)” value in the assay with c-myc was “Active”. Further, the “FRET activity (IC50 <30 μM) BRD4(1)” value in assay [1] was “Active”. Also, the “IL-6 activity (IC50 <30 μM)” value with hIL-6 mRNA is “Active”. The “Cell Proliferation activity” value in assay [2] is listed as “Active”. The “FRET activity (IC50 <30 μM) BRD2(2)” value in assay [3] is recorded as “Active”.
Take `Cc1noc(C)c1-c1cc(C)c(=O)n(Cc2ccccc2F)n1` [Example 84, 6-(3,5-Dimethylisoxazol-4-yl)-2-(2-fluorobenzyl)-4-methylpyridazin-3(2H)-one]: the “c-myc activity (IC50 <30 μM)” value in the assay on c-myc was “Not Active”. Further, the “FRET activity (IC50 <30 μM) BRD4(1)” value in assay [1] is on record as “Active”. In the assay on hIL-6 mRNA, the “IL-6 activity (IC50 <30 μM)” value is on record as “Active”. The “Cell Proliferation activity” value in assay [2] is “Not Active”. Further, in assay [3], the “FRET activity (IC50 <30 μM) BRD2(2)” value is listed as “Active”.
